Experimental data taken from patent publication US20230075856A1, “CYCLIC SULFAMIDE COMPOUNDS FOR TREATMENT OF HBV” (Assembly Biosciences, Inc., priority 2018, published 2023).
pEC50: −log10 of the molar value.

Test system: HBV viral load production from HepAD38 cells
Experiment: Viral production from HepAD38 cells: viral load in supernatant by qPCR of the HBV core sequence
Assay type: cell-based
Conditions: 5 days incubation, qPCR of supernatant HBV DNA vs DMSO control, read-out: viral load lowering EC50 (Activity)
Outline: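 HepAD38 cells seeded at 50,000/well in tetracycline-free medium with 2% FBS, treated with compounds (final top concentration 10 μM) for 5 days at 37 °C. Supernatant HBV DNA quantified by TaqMan qPCR of core sequence against HBV DNA standards, relative to DMSO controls; EC50 by four-parameter logistic fit.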

| Compound | pEC50 |
| --- | --- |
| Cc1nc(-c2ccccn2)sc1CNC(=O)C1CC(C(=O)Nc2ccc(F)c(Cl)c2)N(C)S(=O)(=O)N1 (single isomer, unassigned) [1065-ISOMER-B, N3-(3-chloro-4-fluoro-phenyl)-2-methyl-N5-[[4-methyl-2-(2-pyridyl)thiazol-5-yl]methyl]-1,1-dioxo-1,2,6-thiadiazinane-3,5-dicarboxamide] | > 7.30 |
| Cc1nc(-c2ccccc2)sc1CNC(=O)C1CC(C(=O)Nc2ccc(F)c(Cl)c2)N(C)S(=O)(=O)N1 (single isomer, unassigned) [Compound 914-ISOMER-B, N3-(3-chloro-4-fluoro-phenyl)-2-methyl-N5-[(4-methyl-2-phenyl-thiazol-5-yl)methyl]-1,1-dioxo-1,2,6-thiadiazinane-3,5-dicarboxamide] | 7.00 to 7.30 |
| CC(C)OC1CCC(NC(=O)C2CC(C(=O)Nc3ccc(F)c(Cl)c3)N(C)S(=O)(=O)N2)CC1 (single isomer, unassigned) [Compound 862-ISOMER-B, N3-(3-chloro-4-fluoro-phenyl)-N5-(4-isopropoxycyclohexyl)-2-methyl-1,1-dioxo-1,2,6-thiadiazinane-3,5-dicarboxamide] | > 7.30 |
| N3-(3-chloro-4-fluoro-phenyl)-2-methyl-1,1-dioxo-N5-[(5-phenylisoxazol-3-yl)methyl]- [1149-ISOMER-B] | 5.00 to 7.00 |
| Cc1c(CNC(=O)C2CC(C(=O)Nc3ccc(F)c(Cl)c3)N(C)S(=O)(=O)N2)nnn1-c1ccccc1 (single isomer, unassigned; isomer-a) [1148-ISOMER-A, N3-(3-chloro-4-fluoro-phenyl)-2-methyl-N5-[(5-methyl-1-phenyl-triazol-4-yl)methyl]-1,1-dioxo-1,2,6-thiadiazinane-3,5-dicarboxamide] | 7.00 to 7.30 |
| CN1C(C(=O)Nc2ccc(F)c(Cl)c2)CC(C(=O)NCc2cnc(-c3ccccc3Cl)s2)NS1(=O)=O (single isomer, unassigned) [Compound 912-ISOMER-B, N3-(3-chloro-4-fluoro-phenyl)-N5-[[2-(2-chlorophenyl)thiazol-5-yl]methyl]-2-methyl-1,1-dioxo-1,2,6-thiadiazinane-3,5-dicarboxamide] | > 7.30 |
| COc1ccc(-c2cnc(CNC(=O)C3CC(C(=O)Nc4ccc(F)c(Cl)c4)N(C)S(=O)(=O)N3)s2)cc1 (single isomer, unassigned) [Compound 932-ISOMER-B, N3-(3-chloro-4-fluoro-phenyl)-N5-[[5-(4-methoxyphenyl)thiazol-2-yl]methyl]-2-methyl-1,1-dioxo-1,2,6-thiadiazinane-3,5-dicarboxamide] | > 7.30 |
| CN1C(C(=O)Nc2ccc(F)c(Cl)c2)CC(C(=O)NCc2nc3ccccc3s2)NS1(=O)=O (single isomer, unassigned) [Compound 689-ISOMER-B, N5-(1,3-benzothiazol-2-ylmethyl)-N3-(3-chloro-4-fluoro-phenyl)-2-methyl-1,1-dioxo-1,2,6-thiadiazinane-3,5-dicarboxamide] | > 7.30 |

Same assay, conditions: Hepatitis B virus, HePAD38, 120 h, 5 days incubation, qPCR of supernatant HBV DNA vs DMSO control, read-out: viral load lowering EC50 (Activity)

| Compound | pEC50 |
| --- | --- |
| CN1C(C(=O)Nc2ccc(F)c(Cl)c2)CC(C(=O)NCc2cn(-c3ccccc3)cn2)NS1(=O)=O (single isomer, unassigned) [1145-ISOMER-A, N3-(3-chloro-4-fluoro-phenyl)-2-methyl-1,1-dioxo-N5-[(1-phenylimidazol-4-yl)methyl]-1,2,6-thiadiazinane-3,5-dicarboxamide] | > 7.30 |
| Cc1nc(-c2ccccc2Cl)sc1[C@@H](NC(=O)C1CC(C(=O)Nc2ccc(F)c(Cl)c2)N(C)S(=O)(=O)N1)c1ccccc1 (single isomer, unassigned) [1100-ISOMER-D] | 5.00 to 7.00 |
| CN1C(C(=O)Nc2ccc(F)c(Cl)c2)CC(C(=O)NC2CCN(C(=O)OC(C)(C)C)CC2)NS1(=O)=O (centres unmarked) [Compound 767] | > 7.30 |
| C[C@@H](NC(=O)C1CC(C(=O)Nc2ccc(F)c(C#N)c2)N(C)S(=O)(=O)N1)c1ccccc1 (some centres unmarked) [Compound 834] | 5.00 to 7.00 |
| CN1C(C(=O)Nc2ccc(F)c(Cl)c2)CC(C(=O)Nc2cnn(C)c2)NS1(=O)=O (centres unmarked) [Compound 478] | 5.00 to 7.00 |
| COc1ccc(CNC(=O)C2CC(C(=O)Nc3ccc(F)c(C#N)c3)N(C)S(=O)(=O)N2)cc1 (centres unmarked) [Compound 832] | 7.00 to 7.30 |
| CN1C(C(=O)Nc2ccc(F)c(Cl)c2)CC(C(=O)NC2CCN(c3ccnc(Br)c3)CC2)NS1(=O)=O (centres unmarked) [Compound 1036] | > 7.30 |
| Cc1ccnc(N2CCC(NC(=O)C3CC(C(=O)Nc4ccc(F)c(Cl)c4)N(C)S(=O)(=O)N3)CC2)c1 (centres unmarked) [Compound 971] | > 7.30 |
| C[C@@H](NC(=O)C1CC(C(=O)Nc2ccc(F)c(Cl)c2)N(C)S(=O)(=O)N1)c1ccccc1 (single isomer, unassigned) [Compound 719-ISOMER-A] | > 7.30 |
| CN1C(C(=O)Nc2ccc(F)c(Cl)c2)CC(C(=O)NCc2nn(-c3ccccc3F)c3ccccc23)NS1(=O)=O (centres unmarked) [Compound 1086] | > 7.30 |
| Cc1nc2c(s1)C(NC(=O)C1CC(C(=O)Nc3ccc(F)c(Cl)c3)N(C)S(=O)(=O)N1)CCC2 (centres unmarked) [Compound 918] | > 7.30 |
| Cc1cccc(CNC(=O)C2CC(C(=O)Nc3ccc(F)c(Cl)c3)N(C)S(=O)(=O)N2)n1 (centres unmarked) [Compound 716] | > 7.30 |
| CN1C(C(=O)Nc2ccc(F)c(Cl)c2)CC(C(=O)NC2CCCc3nc(-c4ccc(OCCN5CCCCC5)cc4)sc32)NS1(=O)=O (single isomer, unassigned) [Compound 948-ISOMER-A] | > 7.30 |
| Cc1cn(-c2ccccc2)nc1CNC(=O)C1CC(C(=O)Nc2ccc(F)c(C#N)c2)N(C)S(=O)(=O)N1 (centres unmarked) [Compound 1134] | > 7.30 |
| CN1C(C(=O)Nc2ccc(F)c(C#N)c2)CC(C(=O)NCc2ccc(Cl)cc2)NS1(=O)=O (centres unmarked) [Compound 836] | 7.00 to 7.30 |
| CN1C(C(=O)Nc2ccc(F)c(Cl)c2)CC(C(=O)NCc2cnc(-c3cscn3)s2)NS1(=O)=O (single isomer, unassigned) [Compound 929-ISOMER-B, N3-(3-chloro-4-fluoro-phenyl)-2-methyl-1,1-dioxo-N5-[(2-thiazol-4-ylthiazol-5-yl)methyl]-1,2,6-thiadiazinane-3,5-dicarboxamide] | > 7.30 |
| CN1C(C(=O)Nc2ccc(F)c(Cl)c2)CC(C(=O)NCc2cc(-c3ccccc3)on2)NS1(=O)=O (single isomer, unassigned) [1149-ISOMER-A, N3-(3-chloro-4-fluoro-phenyl)-2-methyl-1,1-dioxo-N5-[(5-phenylisoxazol-3-yl)methyl]-1,2,6-thiadiazinane-3,5-dicarboxamide] | > 7.30 |

| Compound | pEC50 |
| --- | --- |
| CN1C(C(=O)Nc2ccc(F)c(Cl)c2)CC(C(=O)NC(c2ccccc2)c2ccccc2)NS1(=O)=O (single isomer, unassigned) [1014-ISOMER-A, N5-benzhydryl-N3-(3-Chloro-4-fluoro-phenyl)-2-methyl-1,1-dioxo-1,2,6-thiadiazinane-3,5-dicarboxamide] | > 7.30 |
| CN1C(C(=O)Nc2ccc(F)c(Cl)c2)CC(C(=O)NC2CCN(c3ccnc(-c4ccccc4)c3)CC2)NS1(=O)=O (single isomer, unassigned) [1050-ISOMER-A, N3-(3-chloro-4-fluoro-phenyl)-2-methyl-1,1-dioxo-N5-[1-(2-phenyl-4-pyridyl)-4-piperidyl]-1,2,6-thiadiazinane-3,5-dicarboxamide] | 5.00 to 7.00 |
| CN1C(C(=O)Nc2ccc(F)c(Cl)c2)CC(C(=O)NCc2cc(-c3ccc(F)cc3)n(C)n2)NS1(=O)=O (single isomer, unassigned) [1151-ISOMER-A, N3-(3-chloro-4-fluoro-phenyl)-N5-[[5-(4-fluorophenyl)-1-methyl-pyrazol-3-yl]methyl]-2-methyl-1,1-dioxo-1,2,6-thiadiazinane-3,5-dicarboxamide] | > 7.30 |
| CC(NC(=O)C1CC(C(=O)Nc2ccc(F)c(Cl)c2)N(C)S(=O)(=O)N1)c1ccc(F)cc1 (centres unmarked) [Compound 493] | > 7.30 |
| Cc1cnc(CNC(=O)C2CC(C(=O)Nc3ccc(F)c(C#N)c3)N(C)S(=O)(=O)N2)s1 (centres unmarked) [Compound 829] | 5.00 to 7.00 |
| CN1C(C(=O)Nc2ccc(F)c(Cl)c2)CC(C(=O)Nc2cn(C)cn2)NS1(=O)=O (centres unmarked) [Compound 494] | 7.00 to 7.30 |
| CCN1C(C(=O)Nc2ccc(F)c(Cl)c2)CC(C(=O)NCc2cnc(C)s2)NS1(=O)=O (single isomer, unassigned) [Compound 888-ISOMER-A, N3-(3-chloro-4-fluoro-phenyl)-2-ethyl-N5-[(2-methylthiazol-5-yl)methyl]-1,1-dioxo-1,2,6-thiadiazinane-3,5-dicarboxamide] | 5.00 to 7.00 |
| CN1C(C(=O)Nc2ccc(F)c(Cl)c2)CC(C(=O)Nc2cn(-c3ccccc3)cn2)NS1(=O)=O (centres unmarked) [Compound 1116] | 7.00 to 7.30 |
| Cc1cnc(CNC(=O)C2CC(C(=O)Nc3ccc(F)c(Cl)c3)N(C)S(=O)(=O)N2)s1 (centres unmarked) [Compound 687] | > 7.30 |
| CN1C(C(=O)Nc2ccc(F)c(Cl)c2)CC(C(=O)NC(c2ccccc2)c2cnc(Cl)s2)NS1(=O)=O (centres unmarked) [Compound 1066] | > 7.30 |
| CN1C(C(=O)Nc2ccc(F)c(Cl)c2)CC(C(=O)NCc2ccccc2C(F)(F)F)NS1(=O)=O (centres unmarked) [Compound 818] | > 7.30 |
| CN1C(C(=O)Nc2ccc(F)c(Cl)c2)CC(C(=O)NCc2ccccc2Cl)NS1(=O)=O (centres unmarked) [Compound 820] | > 7.30 |
| CN1C(C(=O)Nc2ccc(F)c(Cl)c2)CC(C(=O)NCc2nc3ccccc3s2)NS1(=O)=O (single isomer, unassigned) [Compound 689-ISOMER-A, N5-(1,3-benzothiazol-2-ylmethyl)-N3-(3-chloro-4-fluoro-phenyl)-2-methyl-1,1-dioxo-1,2,6-thiadiazinane-3,5-dicarboxamide] | 5.00 to 7.00 |
| CN1C(C(=O)Nc2ccc(F)c(C#N)c2)CC(C(=O)NC2CC2c2ccccc2)NS1(=O)=O (centres unmarked) [Compound 826] | 5.00 to 7.00 |
| CN1C(C(=O)Nc2ccc(F)c(Cl)c2)CC(C(=O)NCc2cnc(-c3ccc(O)cc3)s2)NS1(=O)=O (centres unmarked) [Compound 924] | > 7.30 |
| Cc1csc(CNC(=O)C2CC(C(=O)Nc3ccc(F)c(Cl)c3)N(C)S(=O)(=O)N2)n1 (centres unmarked) [Compound 686] | 7.00 to 7.30 |
